Data on 18 compounds can be found in patent publication US12091393B2, “Small molecule vaccine adjuvant for enhancing or prolonging immune response” (The Regents of the University of California, priority 2018, dated 2024).

In data set [1] the test system is NF-κB. The experiment in a line: Measurement of NF-κB activation using THP1-Blue NF-κB cells (SEAP). The class given is cell-based. To be noted: for activity at 5 µM: 20 h, two point normalized, compound 1 as 200%; for NF-κB activity (SAR discussion, in words): evaluated in both the presence and absence of LPS.
The subject of data set [2] is NF-κB. Kind of data set: cell-based NF-κB FRET assay. The settings on record: compound + LPS; two point normalized, compound 1 as 200%, LPS (10 ng/mL) as 100%. From the text:
Site A was assigned the 4-substituent of thiazole ring, site B was the thiazole ring itself, site C was the central amide bond in the structure, site D was the benzene ring bearing 1,4-carboxyl and sulfamoyl group, site E was the sulfonamide functional group and site F was the amide substituent on the sulfamoyl group.

The next data set relates to THP-1 cells. Kind of data set: Cell viability assay (MTT). The class given is cell-based. To be noted: compound 5 μM alone, 18 h, normalized to DMSO as 100%. How it is done:
THP-1 cells were plated in 96-well plates (10^5 cells/well) in 100 μL RPMI supplemented with 10% FBS, 100 U/mL penicillin and 100 μg/ml streptomycin. Compounds were dissolved in DMSO at 1 mM stock solution and were further diluted to 10 μM in the assay medium. 100 μL of this solution was added to the cells to obtain a final compound concentration of 5 μM ([…]). After 18 h incubation, a solution of MTT in assay media (0.5 mg/mL) was added to each well and further incubated for 4 to 6 h, followed by addition of cell lysis buffer (15% w/v SDS and 0.12% v/v 12N HCl aqueous solution), incubated overnight, and then absorbance measured at 570 nm using 650 nm as reference using Tecan Infinite M200 plate reader.

[3] abbreviates: compound 5 μM + LPS, LPS (10 ng/mL) as 100%, read-out: NF-κB SEAP Compound + LPS % Activation.
[4] abbreviates: compound 5 μM alone, LPS or DMSO as 100%, read-out: NF-κB SEAP Compound alone % Activation.

Entries after “also recorded” stand apart in the source; their conditions may differ. Read-outs that look alike come from different tables or passages of the source.

As to `C#Cc1ccc(C)c(-c2csc(NC(=O)c3ccc(S(=O)(=O)N4CCCCC4)cc3)n2)c1` [Compound 12t, N-(4-(5-ethynyl-2-methylphenyl)thiazol-2-yl)-4-(piperidin-1-ylsulfonyl)benzamide], the activity at 5 µM with NF-κB [1] (setting [3]) is 90%; in the data set on NF-κB [1] (setting [4]), 101%. Further, the “NF-κB activity (SAR discussion, in words)” value (“NF-κB activity” for short) in the data set with NF-κB [1] is “inactive”. In addition, in the data set with NF-κB [2], the “NF-κB FRET Compound + LPS % Activation” value is recorded as 88.20%. Moreover, the “MTT Compound alone % Viability” value in the data set on THP-1 cells is 82.42%.

Regarding `Cc1csc(NC(=O)c2ccc(S(=O)(=O)N3CCCCC3)cc2)n1` [Compound 12g, N-(4-methylthiazol-2-yl)-4-(piperidin-1-ylsulfonyl)benzamide], the activity at 5 µM in the data set with NF-κB [1] (setting [3]) was determined as 101%; in the data set with NF-κB [1] (setting [4]) it was 99.9%. In addition, the “NF-κB activity” value in the data set on NF-κB [1] is “None of these molecules had any NF-κB activity”. In addition, the “NF-κB FRET Compound + LPS % Activation” value in the data set with NF-κB [2] turned out to be 110.48%. For the same compound, in the data set on THP-1 cells, the “MTT Compound alone % Viability” value was found to be 114.29%.

On to `CCc1csc(NC(=O)c2ccc(S(=O)(=O)N3CCCCC3)cc2)n1` [Compound 12h, N-(4-ethylthiazol-2-yl)-4-(piperidin-1-ylsulfonyl)benzamide], for which the figures for the activity at 5 µM in the data set on NF-κB [1] (setting [3]) and in the data set on NF-κB [1] (setting [4]) were 94% and 98.7%, respectively. The “NF-κB activity” value in the data set with NF-κB [1] is “None of these molecules had any NF-κB activity”. In the data set with NF-κB [2], the “NF-κB FRET Compound + LPS % Activation” value stood at 108.38%. Moreover, the “MTT Compound alone % Viability” value in the data set with THP-1 cells was found to be 122.75%.

As for `Cc1ccc(C)c(-c2csc(NC(=O)c3ccc(S(=O)(=O)N4CCN(C(=O)OC(C)(C)C)CC4)cc3)n2)c1` [Compound 58f, tert-butyl 4-((4-((4-(2,5-dimethylphenyl)thiazol-2-yl)carbamoyl)phenyl)sulfonyl)piperazine-1-carboxylate], the activity at 5 µM is 105% in the data set with NF-κB [1] (setting [3]) and 101% in the data set with NF-κB [1] (setting [4]). Besides, the “NF-κB activity” value with NF-κB [1] was “inactive”. Further, in the data set with NF-κB [2], the “NF-κB FRET Compound + LPS % Activation” value was 95.64%. In addition, in the data set with THP-1 cells, the “MTT Compound alone % Viability” value turned out to be 81.23%.

Consider `Cc1cc(C)cc(-c2csc(NC(=O)c3ccc(S(=O)(=O)N4CCCCC4)cc3)n2)c1` [Compound 12o, N-(4-(3,5-dimethylphenyl)thiazol-2-yl)-4-(piperidin-1-ylsulfonyl)benzamide], for which the values for the activity at 5 µM with NF-κB [1] (setting [3]) and in the data set on NF-κB [1] (setting [4]) were 93.2% and 98.2%, respectively. The “NF-κB activity” value in the data set with NF-κB [1] was “inactive”. Further, the “NF-κB FRET Compound + LPS % Activation” value with NF-κB [2] came to 170.36%. Also, the “MTT Compound alone % Viability” value in the data set on THP-1 cells stood at 92.91%.

`Cc1ccc(C)c(-c2c[nH]c(NC(=O)c3ccc(S(=O)(=O)N4CCCCC4)cc3)n2)c1` [Compound 18a, N-(4-(2,5-dimethylphenyl)-1H-imidazol-2-yl)-4-(piperidin-1-ylsulfonyl)benzamide]: the values for the activity at 5 µM in the data set on NF-κB [1] (setting [3]) and with NF-κB [1] (setting [4]) were 97.3% and 99.3%, respectively. Also, the “NF-κB activity” value in the data set on NF-κB [1] is “none of these molecules that replaced the thiazole functionality were active”. The “NF-κB FRET Compound + LPS % Activation” value in the data set on NF-κB [2] is on record as 142.21%. The “MTT Compound alone % Viability” value with THP-1 cells is listed as 50.69%.

As to `C#CCN(CCC)S(=O)(=O)c1ccc(C(=O)Nc2nc(-c3cc(C)ccc3C)cs2)cc1` [Compound 72c, N-(4-(2,5-dimethylphenyl)thiazol-2-yl)-4-(N-(prop-2-yn-1-yl)-N-propylsulfamoyl)benzamide], the activity at 5 µM in the data set on NF-κB [1] (setting [3]) worked out at 122%; with NF-κB [1] (setting [4]) it was 103%. Moreover, the “NF-κB activity” value in the data set on NF-κB [1] is given as “lost their activity”. For the same compound, the “NF-κB FRET Compound + LPS % Activation” value in the data set on NF-κB [2] came out at 133.88%. For the same compound, the “MTT Compound alone % Viability” value with THP-1 cells was 84.00%.

As for `C#CC1CCN(S(=O)(=O)c2ccc(C(=O)Nc3nc(-c4cc(C)ccc4C)cs3)cc2)CC1` [Compound 72d, N-(4-(2,5-dimethylphenyl)thiazol-2-yl)-4-((4-ethynylpiperidin-1-yl)sulfonyl)benzamide], the activity at 5 µM worked out at 152% with NF-κB [1] (setting [3]) and 112% in the data set on NF-κB [1] (setting [4]). Also, the “NF-κB activity” value in the data set on NF-κB [1] was “active”. For the same compound, in the data set with NF-κB [2], the “NF-κB FRET Compound + LPS % Activation” value is 123.22%. The “MTT Compound alone % Viability” value in the data set with THP-1 cells was found to be 83.27%.

Regarding `Cc1ccc(C)c(-c2csc(NC(=O)c3ccc(S(=O)(=O)C4CCCCC4)cc3)n2)c1` [Compound 49b, 4-(cyclohexylsulfonyl)-N-(4-(2,5-dimethylphenyl)thiazol-2-yl)benzamide], the activity at 5 µM turned out to be 114% with NF-κB [1] (setting [3]) and 99.8% in the data set on NF-κB [1] (setting [4]). Further, in the data set on NF-κB [1], the “NF-κB activity” value is listed as “none of these modifications at site D or E were tolerated”. Further, in the data set with NF-κB [2], the “NF-κB FRET Compound + LPS % Activation” value is recorded as 136.43%. The “MTT Compound alone % Viability” value in the data set on THP-1 cells stood at 81.81%.

`Cc1ccc(C)c(-c2csc(N(C)C(=O)c3ccc(S(=O)(=O)N4CCCCC4)cc3)n2)c1` [Compound 34c, N-(4-(2,5-dimethylphenyl)thiazol-2-yl)-N-methyl-4-(piperidin-1-ylsulfonyl)benzamide]: the activity at 5 µM with NF-κB [1] (setting [3]) turned out to be 105%; with NF-κB [1] (setting [4]), 101%. Moreover, the “NF-κB activity” value in the data set with NF-κB [1] was “inactive”. Besides, the “NF-κB FRET Compound + LPS % Activation” value with NF-κB [2] is reported as 143.05%. Moreover, the “MTT Compound alone % Viability” value with THP-1 cells is 97.43%.

For the compound `Cc1ccc(-c2csc(NC(=O)c3ccc(S(=O)(=O)N4CCCCC4)cc3)n2)c(C)c1` [Compound 12m, N-(4-(2,4-dimethylphenyl)thiazol-2-yl)-4-(piperidin-1-ylsulfonyl)benzamide], the activity at 5 µM in the data set with NF-κB [1] (setting [3]) was determined as 86.7%; in the data set with NF-κB [1] (setting [4]), 98.5%. Also, the “NF-κB activity” value with NF-κB [1] is “inactive”. Moreover, the “NF-κB FRET Compound + LPS % Activation” value in the data set on NF-κB [2] was found to be 161.33%. For the same compound, the “MTT Compound alone % Viability” value with THP-1 cells is 101.40%.

`Cc1ccc(C)c(-c2csc(NC(=O)c3ccc(S(=O)(=O)N4CCCCC4)nc3)n2)c1` [Compound 46b, N-(4-(2,5-dimethylphenyl)thiazol-2-yl)-6-(piperidin-1-ylsulfonyl)nicotinamide]: the figures for the activity at 5 µM in the data set on NF-κB [1] (setting [3]) and in the data set with NF-κB [1] (setting [4]) were 115% and 100%, respectively. The “NF-κB activity” value in the data set with NF-κB [1] was “none of these modifications at site D or E were tolerated”. Further, the “NF-κB FRET Compound + LPS % Activation” value in the data set on NF-κB [2] amounted to 146.35%. Further, the “MTT Compound alone % Viability” value in the data set on THP-1 cells stood at 88.57%.

Regarding `Cc1ccc(Br)c(-c2csc(NC(=O)c3ccc(S(=O)(=O)N4CCCCC4)cc3)n2)c1` [Compound 12d, N-(4-(2-bromo-5-methylphenyl)thiazol-2-yl)-4-(piperidin-1-ylsulfonyl)benzamide], the activity at 5 µM came out at 223% in the data set with NF-κB [1] (setting [3]) and 254% with NF-κB [1] (setting [4]). In the data set on NF-κB [1], the “NF-κB activity” value is on record as “active; also recorded: most potent”. Also, the “NF-κB FRET Compound + LPS % Activation” value with NF-κB [2] amounted to 197.32%.

As to `Cc1ccc(C)c(-c2nnc(NC(=O)c3ccc(S(=O)(=O)N4CCCCC4)cc3)s2)c1` [Compound 18f, N-(5-(2,5-dimethylphenyl)-1,3,4-thiadiazol-2-yl)-4-(piperidin-1-ylsulfonyl)benzamide], the activity at 5 µM in the data set with NF-κB [1] (setting [3]) came out at 148%; with NF-κB [1] (setting [4]) it was 99.7%. For the same compound, the “NF-κB activity” value in the data set with NF-κB [1] is “none of these molecules that replaced the thiazole functionality were active”. The “MTT Compound alone % Viability” value in the data set with THP-1 cells was determined as 89.80%.

In the case of `O=C(Nc1nc(-c2cccc3ccccc23)cs1)c1ccc(S(=O)(=O)N2CCCCC2)cc1` [Compound 12q, N-(4-(naphthalen-1-yl)thiazol-2-yl)-4-(piperidin-1-ylsulfonyl)benzamide], the figures for the activity at 5 µM with NF-κB [1] (setting [3]) and with NF-κB [1] (setting [4]) were 200% and 198%, respectively. Further, the “NF-κB activity” value with NF-κB [1] is listed as “equally potent”. For the same compound, the “MTT Compound alone % Viability” value in the data set on THP-1 cells was determined as 92.71%.

On to `Cc1cccc(C)c1-c1csc(NC(=O)c2ccc(S(=O)(=O)N3CCCCC3)cc2)n1` [Compound 12p, N-(4-(2,6-dimethylphenyl)thiazol-2-yl)-4-(piperidin-1-ylsulfonyl)benzamide], for which the values for the activity at 5 µM in the data set on NF-κB [1] (setting [3]) and in the data set on NF-κB [1] (setting [4]) were 209% and 185%, respectively. In addition, the “NF-κB activity” value in the data set on NF-κB [1] is “retained activity”. Also, the “MTT Compound alone % Viability” value with THP-1 cells came to 99.64%.

Consider `Cc1ccc(C)c(-c2nc(NC(=O)c3ccc(S(=O)(=O)N4CCCCC4)cc3)sc2C#CCCCO)c1` [Compound 18u, N-(4-(2,5-dimethylphenyl)-5-(5-hydroxypent-1-yn-1-yl)thiazol-2-yl)-4-(piperidin-1-ylsulfonyl)benzamide], for which the activity at 5 µM with NF-κB [1] (setting [3]) stood at 134%; in the data set on NF-κB [1] (setting [4]) it was 100%. Besides, in the data set on THP-1 cells, the “MTT Compound alone % Viability” value is reported as 104.08%.

In the case of `CCc1sc(NC(=O)c2ccc(S(=O)(=O)N3CCCCC3)cc2)nc1-c1cc(C)ccc1C` [Compound 18r, N-(4-(2,5-dimethylphenyl)-5-ethylthiazol-2-yl)-4-(piperidin-1-ylsulfonyl)benzamide], the activity at 5 µM with NF-κB [1] (setting [3]) and with NF-κB [1] (setting [4]) was 179% each time. In addition, in the data set on NF-κB [1], the “NF-κB activity” value was “retained activity”. Also, in the data set with THP-1 cells, the “MTT Compound alone % Viability” value was found to be 103.66%.
